According to patent publication US11744843B2, “Identification and treatment of T-cell epitopes of short H2A oncohistones” (Fred Hutchinson Cancer Research Center, priority 2020, dated 2023):
Entries after “also recorded” stand apart in the source; their conditions may differ.

How the values were obtained:
Assay type in all cases: cell-based
[1] = test system: Hodgkin's lymphoma cell line (L-1236); experiment: Western blot of cleaved PARP, γ-H2A.X and tubulin after drug treatment, Hodgkin's lymphoma cell line L-1236
Description: FIGS. 11A to 11B. […] FIG. 11A illustrates a Western blot gel depicting marker expression following a 72 hour treatment with aclarubicin, etoposide, and doxorubicin. The markers are listed on the y-axis. The specific agents and amounts were added according to the labeling on the x-axis, which is fully described in the figure legend. FIG. 11B illustrates graphs of the relative band intensity taken from the Western blot and plotted according to drug concentration. The band intensity of PARP was used as an indicator of agent cytotoxicity. The band intensity of γ-H2A.X was used as an indicator of DNA damage (side effect). The band intensity of tubulin was used as a control.
(§1) FIG. 11A is a Western blot gel assessing expression of the markers listed on the y-axis. The specific cancer therapeutics and the amounts used are indicated by the numbers along the x-axis and the corresponding figure legend. In this Example, aclarubicin's cytotoxicity on lymphoma cells was assessed by determining the amount of cleaved PARP, which was assessed as band intensity (FIG. 11B) from the Western blot (FIG. 11A). In this Example, aclarubicin's corresponding DNA damage was assessed by measuring the amount of γ-H2A.X, which was assessed as band intensity (FIG. 11B) from the Western blot (FIG. 11A).

[2] = test system: Hodgkin's lymphoma cell line (L-428); experiment: Western blot of cleaved PARP, γ-H2A.X and tubulin after drug treatment, Hodgkin's lymphoma cell line L-428
Description: FIGS. 12A to 12B. […] FIG. 12A illustrates a Western blot gel as described in FIG. 11A. FIG. 12B illustrates graphs of the relative band intensity taken from the Western blot as described in FIG. 11B.
(§2) In FIGS. 12 and 13, similar experiments were performed to compare the cytotoxicity of aclarubicin to etoposide and doxorubicin in additional lymphoma cell lines. In FIG. 12, the compounds cytotoxicity and side effects were assessed in the Hodgkin's lymphoma cell line, L-428. In FIG. 13, the compounds cytotoxicity and side effects were assessed in the diffuse large B-cell lymphoma cell line, A3/KAW.

[3] = test system: diffuse large B-cell lymphoma cell line (A3/Kawakami); experiment: Western blot of cleaved PARP, γ-H2A.X and tubulin after drug treatment, diffuse large B-cell lymphoma cell line A3/Kawakami; conditions: compared with etoposide and doxorubicin
Description: FIGS. 13A to 13B. […] FIG. 13A illustrates a Western blot gel as described in FIG. 11A. FIG. 13B illustrates graphs of the relative band intensity taken from the Western blot as described in FIG. 11B.
as §2

[4] = test system: lymphoma cells; experiment: Western blot of cleaved PARP and γ-H2A.X, summary over the three lymphoma cell lines (FIGS. 11-13)
Description: as §1, §2

[5] = L-1236, 72 hour treatment, 100 nM to 5.0 μM, compared with etoposide and doxorubicin
[6] = L-428, 72 hour treatment, compared with etoposide and doxorubicin

## CC[C@@]1(O)C[C@H](O[C@H]2C[C@H](N(C)C)[C@H](O[C@H]3C[C@H](O)[C@H](O[C@H]4CCC(=O)[C@H](C)O4)[C@H](C)O3)[C@H](C)O2)c2c(cc3c(c2O)C(=O)c2c(O)cccc2C3=O)[C@H]1C(=O)OC [aclarubicin]
[1]; [5]
  DNA damage (band intensity of γ-H2A.X, side effect): minimizing DNA damage
  apoptosis / cytotoxicity (band intensity of PARP): maximizes apoptosis
[1]; L-1236, compared with etoposide and doxorubicin
  relative band intensity of PARP/tubulin, PARP/γ-H2A.X and γ-H2A.X/Tubulin: best combination of anti-neoplastic activity while having fewer harmful side effects
[2]; [6]
  DNA damage (band intensity of γ-H2A.X, side effect): minimizing DNA damage
  apoptosis / cytotoxicity (band intensity of PARP): maximizes apoptosis
[2]; L-428, compared with etoposide and doxorubicin
  cytotoxicity and side effects (relative band intensities): best combination of anti-neoplastic activity while having fewer harmful side effects
[3]; A3/KAW
  cytotoxicity and side effects (relative band intensities): best combination of anti-neoplastic activity while having fewer harmful side effects
[3]; A3/Kawakami, 72 hour treatment
  DNA damage (band intensity of γ-H2A.X, side effect): minimizing DNA damage
  apoptosis / cytotoxicity (band intensity of PARP): maximizes apoptosis
[4]; FIGS. 11-13, compared with doxorubicin or etoposide
  DNA damage as measured by γ-H2A.X; side effect profile: much less DNA damage; also recorded: much more favorable side effect profile than doxorubicin
[4]; FIGS. 11-13, three lymphoma cell lines
  killing of lymphoma cells as measured by cleaved PARP; anti-neoplastic activity: efficiently kills lymphoma cells; also recorded: more anti-neoplastic activity than etoposide
